≈ marks a conversion by molar mass, not a printed value. Like-named read-outs stand apart in the source and are kept apart here.
Key:
S. aureus = assay: In vitro activity (MIC) against S. aureus strains; conditions: Staphylococcus aureus
[1] = tested on: Enterobacteriaceae spp. strains; assay: In vitro activity (MIC) against Enterobacteriaceae spp. strains

CO[C@H]1/C=C/O[C@@]2(C)Oc3c(C)c(O)c4c(O)c(c5c(nc6cc(C)ccn65)c4c3C2=O)NC(=O)/C(C)=C\C=C\[C@H](C)[C@H](O)[C@@H](C)[C@@H](O)[C@@H](C)[C@H](OC(C)=O)[C@@H]1C [Rifaximin, reference compound]
MIC (S. aureus; strain ATCC S. aureus 29213): 0.015 µg/mL (≈ 0.0191 µM)
MIC (S. aureus; strain S. aureus 215): 1 µg/mL (≈ 1.27 µM)
MIC (S. aureus; strain S. aureus 234): 0.25 µg/mL (≈ 0.318 µM)
MIC (S. aureus; strain S. aureus 236): 1 µg/mL (≈ 1.27 µM)
MIC (S. aureus; strain S. aureus 237): 0.06 µg/mL (≈ 0.0763 µM)
MIC (S. aureus; strain S. aureus 238): 0.03 µg/mL (≈ 0.0382 µM)
MIC (S. aureus; strain S. aureus 246): 0.5 µg/mL (≈ 0.636 µM)
MIC (S. aureus; strain S. aureus 252): 0.5 µg/mL (≈ 0.636 µM)
MIC (S. aureus; strain S. aureus 253): 0.12 µg/mL (≈ 0.153 µM)
MIC (S. aureus; strain S. aureus 267): 1 µg/mL (≈ 1.27 µM)
MIC (S. aureus; strain S. aureus 272): 0.25 µg/mL (≈ 0.318 µM)
MIC (S. aureus; strain S. aureus 279): 0.03 µg/mL (≈ 0.0382 µM)
MIC (S. aureus; strain S. aureus 327): 1 µg/mL (≈ 1.27 µM)
MIC (S. aureus; strain S. aureus 328): 0.5 µg/mL (≈ 0.636 µM)
MIC (S. aureus; strain S. aureus 329): 1 µg/mL (≈ 1.27 µM)
MIC (S. aureus; strain S. aureus 339): 1 µg/mL (≈ 1.27 µM)
MIC (S. aureus; strain S. aureus 345): 0.25 µg/mL (≈ 0.318 µM)
MIC (S. aureus; strain S. aureus 355): 0.5 µg/mL (≈ 0.636 µM)
MIC (S. aureus; strain S. aureus 406): 0.5 µg/mL (≈ 0.636 µM)
MIC (S. aureus; strain S. aureus 408): 0.25 µg/mL (≈ 0.318 µM)
MIC (S. aureus; strain S. aureus 409): 0.12 µg/mL (≈ 0.153 µM)
MIC (S. aureus; strain S. aureus 416): 0.5 µg/mL (≈ 0.636 µM)
MIC (S. aureus; strain S. aureus 425): 0.5 µg/mL (≈ 0.636 µM)
MIC (S. aureus; strain S. aureus 436): 0.06 µg/mL (≈ 0.0763 µM)
MIC (S. aureus; strain S. aureus 475): 0.5 µg/mL (≈ 0.636 µM)
MIC [1]: 32 µg/mL (≈ 40.7 µM)
MIC50 [1]: 32 µg/mL (≈ 40.7 µM)
MIC90 [1]: 32 µg/mL (≈ 40.7 µM)
MIC ([1]; Citrobacter freundii, C. freundii 57): 16 µg/mL (≈ 20.4 µM)
MIC ([1]; Citrobacter freundii, C. freundii 58): 32 µg/mL (≈ 40.7 µM)
MIC ([1]; Citrobacter freundii, C. freundii 65): 32 µg/mL (≈ 40.7 µM)
MIC ([1]; Citrobacter freundii, C. freundii 68): 32 µg/mL (≈ 40.7 µM)
MIC ([1]; Citrobacter freundii, C. freundii 69): 32 µg/mL (≈ 40.7 µM)
MIC ([1]; Citrobacter freundii, C. freundii 1070): 32 µg/mL (≈ 40.7 µM)
MIC ([1]; Citrobacter freundii, C. freundii 1073): 32 µg/mL (≈ 40.7 µM)
MIC ([1]; Citrobacter freundii, C. freundii 1075): 32 µg/mL (≈ 40.7 µM)
MIC ([1]; Enterobacter cloacae, E. cloacae 1): 32 µg/mL (≈ 40.7 µM)
MIC ([1]; Enterobacter cloacae, E. cloacae 3): 32 µg/mL (≈ 40.7 µM)
MIC ([1]; Enterobacter cloacae, E. cloacae 8): 32 µg/mL (≈ 40.7 µM)
MIC ([1]; Enterobacter cloacae, E. cloacae 12): 32 µg/mL (≈ 40.7 µM)
MIC ([1]; Enterobacter cloacae, E. cloacae 13): 32 µg/mL (≈ 40.7 µM)
MIC ([1]; Enterobacter cloacae, E. cloacae 14): 32 µg/mL (≈ 40.7 µM)
MIC ([1]; Enterobacter cloacae, E. cloacae 16): 32 µg/mL (≈ 40.7 µM)
MIC ([1]; Enterobacter cloacae, E. cloacae 20): 32 µg/mL (≈ 40.7 µM)
MIC ([1]; Enterobacter cloacae, E. cloacae 321): 32 µg/mL (≈ 40.7 µM)
MIC ([1]; Enterobacter cloacae, E. cloacae 348): 32 µg/mL (≈ 40.7 µM)
MIC ([1]; Enterobacter cloacae, E. cloacae 349): 32 µg/mL (≈ 40.7 µM)
MIC ([1]; Enterobacter cloacae, E. cloacae 358): 32 µg/mL (≈ 40.7 µM)
MIC ([1]; Enterobacter cloacae, E. cloacae 367): 32 µg/mL (≈ 40.7 µM)
MIC ([1]; Enterobacter cloacae, E. cloacae 369): 32 µg/mL (≈ 40.7 µM)
Range (MIC) ([1]; Enterobacteriaceae spp. strains): 8 to 32 µg/mL
MIC ([1]; Escherichia coli, ATCC E. Coli 25922): 16 µg/mL (≈ 20.4 µM)
MIC ([1]; Escherichia coli, E. coli 6): 32 µg/mL (≈ 40.7 µM)
MIC ([1]; Escherichia coli, E. coli 15): 16 µg/mL (≈ 20.4 µM)
MIC ([1]; Escherichia coli, E. coli 34): 32 µg/mL (≈ 40.7 µM)
MIC ([1]; Escherichia coli, E. coli 37): 8 µg/mL (≈ 10.2 µM)
MIC ([1]; Escherichia coli, E. coli 41): 16 µg/mL (≈ 20.4 µM)
MIC ([1]; Escherichia coli, E. coli 43): 16 µg/mL (≈ 20.4 µM)
MIC ([1]; Escherichia coli, E. coli 44): 16 µg/mL (≈ 20.4 µM)
MIC ([1]; Escherichia coli, E. coli 46): 16 µg/mL (≈ 20.4 µM)
MIC ([1]; Escherichia coli, E. coli 47): 32 µg/mL (≈ 40.7 µM)
MIC ([1]; Escherichia coli, E. coli 48): 32 µg/mL (≈ 40.7 µM)
MIC ([1]; Escherichia coli, E. coli 49): 32 µg/mL (≈ 40.7 µM)
MIC ([1]; Escherichia coli, E. coli 56): 32 µg/mL (≈ 40.7 µM)
MIC ([1]; Escherichia coli, E. coli 62): 32 µg/mL (≈ 40.7 µM)
MIC ([1]; Escherichia coli, E. coli 71): 8 µg/mL (≈ 10.2 µM)
MIC ([1]; Escherichia coli, E. coli 90): 16 µg/mL (≈ 20.4 µM)
MIC ([1]; Escherichia coli, E. coli 92): 32 µg/mL (≈ 40.7 µM)
MIC ([1]; Escherichia coli, E. coli 93): 32 µg/mL (≈ 40.7 µM)
MIC ([1]; Escherichia coli, E. coli 95): 32 µg/mL (≈ 40.7 µM)
MIC ([1]; Escherichia coli, E. coli 96): 8 µg/mL (≈ 10.2 µM)
MIC ([1]; Escherichia coli, E. coli 97): 32 µg/mL (≈ 40.7 µM)
MIC ([1]; Escherichia coli, E. coli 100): 32 µg/mL (≈ 40.7 µM)
MIC ([1]; Escherichia coli, E. coli 102): 16 µg/mL (≈ 20.4 µM)
MIC ([1]; Escherichia coli, E. coli 103): 32 µg/mL (≈ 40.7 µM)
MIC ([1]; Escherichia coli, E. coli 109): 32 µg/mL (≈ 40.7 µM)
MIC ([1]; Escherichia coli, E. coli 110): 32 µg/mL (≈ 40.7 µM)
MIC ([1]; Escherichia coli, E. coli 112): 32 µg/mL (≈ 40.7 µM)
MIC ([1]; Escherichia coli, E. coli 113): 32 µg/mL (≈ 40.7 µM)

— US9364467B2 (Salix Pharmaceuticals, Ltd, priority 2012, dated 2016)
